Structures can show the parent of a compound that is named as a salt. Where two headings read alike, the source gives them in different places.
What was measured:
[1] = tested on: Mouse CD4+ cells; assay: Th17 cell differentiation assay (IL-17 ELISA); format: cell-based
Procedure: Mouse CD4+cells were purified using the CD4+ T Cell Isolation II Kit according to manufacturer's instructions (Miltenyi Biotec). 96 well plates were pre-coated with anti-mCD3 antibody. Un-coated wells were used as controls. CD4+ Cells were resuspended in RPMI 1640 complete medium and were added to the 96-well plates. Cytokine cocktail and the compound were then added to the wells. Antibodies and cytokines (all from R&D Systems) used in the assay were selected from the following: anti-mCD3; anti-mCD28; anti-mIFNγ; anti-mIL4; mIL-6; mIL-23; mIL-1β; hTGF-β1. The culture was incubated at 37° C. for 3 days and supernatants were collected for ELISA. The IL-17 ELISAs were performed according to manufacturer's instructions (R&D Systems). The results were analyzed using Prism software with non-linear regression to determine pIC50.

[2] = biological target: T1, RORγ (Homo sapiens, UniProt P51449); assay: Jurkat cell luciferase assay (human IL17 promoter reporter, RORγt overexpression); format: cell-based; details: mean pIC50; detection limit of the assay 5
T1 construct: expressed in transfected cells
T1 sequence (P51449 1-497 isoform P51449-2): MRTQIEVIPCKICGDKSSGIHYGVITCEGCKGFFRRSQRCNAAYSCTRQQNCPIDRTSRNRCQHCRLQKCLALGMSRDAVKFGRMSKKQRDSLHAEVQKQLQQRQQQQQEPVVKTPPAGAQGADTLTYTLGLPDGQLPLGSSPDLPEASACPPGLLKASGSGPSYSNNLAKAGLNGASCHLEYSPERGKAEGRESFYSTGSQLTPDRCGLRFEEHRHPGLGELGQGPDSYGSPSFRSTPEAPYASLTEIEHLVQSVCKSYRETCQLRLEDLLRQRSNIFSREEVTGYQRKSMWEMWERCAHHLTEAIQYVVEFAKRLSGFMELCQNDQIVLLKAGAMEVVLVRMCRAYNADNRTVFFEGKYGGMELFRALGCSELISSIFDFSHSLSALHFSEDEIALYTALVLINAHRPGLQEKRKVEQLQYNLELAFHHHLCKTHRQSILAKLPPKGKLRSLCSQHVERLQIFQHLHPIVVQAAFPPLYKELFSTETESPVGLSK
Source text: RORγ is known to bind to a CNS (conserved non-coding sequences) enhancer element in the IL17 promoter. In this assay, RORγ activity is indirectly assessed using a luciferase reporter construct which contains the human IL17 promoter having the RORγ-specific CNS enhancer element. Inhibition of RORγ activity by a compound will result in a decrease in luciferase activity of Jurkat cells transfected with the reporter construct.
. For the 1.1 Kb fragment, PCR was used to amplify human IL17 proximal promoter region from genomic DNA of 293T cells using primers as follows: forward primer, 5′-[…]-3′ (SEQ ID NO. 4) (Xhol site is underlined) and reverse primer, 5′-[…]-3′ SEQ ID NO. 5) (HindIII site is underlined). The 1.1 kb DNA bands were excised, purified, and inserted into pMD19-T Simple Vector (Takara). After DNA sequencing confirmation, the 1.1 kb DNA was digested with XhoI and HindIII and inserted into XhoI/HindIII sites of pGL4.31[luc2P/GAL4UAS/Hygro] (Promega) to generate the pIL17-lkb-luc reporter construct. For the 1.9 Kb fragment, PCR was used to amplify human IL17 promoter region from genomic DNA using primers as follows: forward primer, 5′-[…]-3′ (SEQ ID NO. 6) (KpnI site is underlined) and reverse primer, 5′-[…]-3′ (SEQ ID NO. 7)(XhoI site is underlined). The resulting 1.9 kb DNA bands were excised, gel purified, and cloned into a pMD19-T Simple Vector (Takara). […] The 1.9 kb DNA fragment was released by double digestion with KpnI and XhoI and inserted into pIL17-lkb-luc to generate the luciferase reporter plasmid “pIL17-3kb-CNS-luc.” To overexpress RORγt, the full-length cDNA of human RORγt identical to the published sequence NM13 001001523 was cloned into pcDNA3.1 at the KpnI-NotI cloning sites to generate the RORγt overexpression plasmid “CDNA3.1DhRORγ49-8”. […]
Compounds were dissolved in DMSO at three concentrations, 10 mM, 400 uM and 16 uM, and were dispensed into 384-wells assay plate at 40 nl, 12.5 nl, 5 nl respectively. The volume was adjusted with pure DMSO to a give a final uniform volume of 40 nl Jurkat cells described above were counted and centrifuged. […]

[3] = 72 h, mean pIC50, IL-17 ELISA, 3 days culture, detection limit of the assay 5, read-out: pIC50 in the Th17 cell differentiation assay (converted)

Row | IC50 ([1]; table with percutaneous study, read-out: Th17 cell differentiation assay IC50) [ng/mL] | IC50 ([1]; table with percutaneous study, read-out: Th17 cell differentiation assay pIC50 (converted)) [nM] | Structure (SMILES) | IC50 [1, 3] [nM] | IC50 [2] [nM]
1 | 0.4 | 0.794 | Cc1c(CN2CCN(C(=O)C3CCCC3)[C@@H](C)C2)cc(F)cc1NC(=O)c1cccc(C#N)c1 [Example 66, (S)-3-cyano-N-(3-((4-(cyclopentanecarbonyl)-3-methylpiperazin-1-yl)methyl)-5-fluoro-2-methylphenyl)benzamide] | ~0.794 | ~5.01
2 |  |  | Cc1c(CN2CCN(C(=O)C3CCCC3)[C@@H](C)C2)cc(Cl)cc1NC(=O)c1cccc(C#N)c1 [Example 193, (S)-N-(5-chloro-3-((4-(cyclopentanecarbonyl)-3-methylpiperazin-1-yl)methyl)-2-methylphenyl)-3-cyanobenzamide, trifluoroacetic acid salt] | ~5.01 | ~2.51
